# Assay results reported in US20240391931A1 (Bristol-Myers Squibb Company, priority 2021, published 2024).
# Counter-ions that a name gives are not always drawn.
# Target: HER2YVMA (Homo sapiens, UniProt P04626, INS775YVMA)
# Assay: HER2 signaling (pHER2) in Hek293-HER2YVMA cells
# Assay type: cell-based
# Design: expressed in transfected cells; host or cells: HEK293 (pool), Ba/F3 (clones), BEAS2B (clones); lentiviral vector pCDH-CMV-MCS-EF1-Neo
# Conditions: 1.5 hr compound, 1% FBS, read-out: HEKYVMA pHER2 EC50
# Protocol: Cell culture, plasmid cloning, and lentiviral transduction were carried out according to standard procedures. The Human HER2 cDNA construct in pCMV6-Entry for the HER2 wildtype (WT) expression was obtained from Origene. The HER2 cDNA including the 12-nucleotide insertion corresponding to YVMA insertion (HER2YVMA) was codon optimized, synthesized and cloned by GenScript (Piscataway, NJ) in pcDNA3.1. The lentiviral constructs expressing HER2YVMA and HER2 WT were sub-cloned using PCR at System Biosciences (SBI, Mountainview, CA) into lentiviral vectors pCDH-CMV-MCS-EF1-Neo and lentiviral particles were generated.
# Engineered lines expressing HER2YVMA and HER2 WT were prepared in HEK293 (human embryonic kidney cells), Ba/F3 (Interleukin 3 (IL3)-dependent murine pro B cell line), and BEAS2B (primary immortalized human bronchial epithelial cell line). Ba/F3, BEAS2B, and HEK293 cells were obtained from the American Type Culture Collection (ATCC, Manassas, VA). Parental Ba/F3 cells were grown in suspension in complete RPMI 1640 supplemented with 10% FBS and 1% P/S and 10 ng/ml interleukin 3 (IL3, Sigma-Aldrich). Hek293 and BEAS2B cells were grown as monolayers in DMEM supplemented with 10% FBS and 1% P/S. All cells were maintained and propagated in a humidified 5% CO2 incubator at 37° C.
# To generate Ba/F3, BEAS2B, and Hek-293 cells engineered with lentivirus to express HER2 WT or HER2YVMA, the cells were transduced with lentiviruses at multiplicity of infection (MOI) of 1 or 10; transduced cells were selected and maintained with G418 ([…]) (Geneticin, Life Technologies, Carlsbad, CA). Ba/F3 engineered cells were subjected to gradual withdrawal of interleukin 3 (IL-3, Sigma-Aldrich). After selection, IL3 independent Ba/F3 HER2YVMA, and BEAS2B HER2YVMA cells were cloned by limiting dilution. Hek293 HER2YVMA cells were used as pool. HER2 and phospho HER2 levels were confirmed by flow cytometery and immunoassay (MSD, Meso-Scale Discovery, Rockville, Maryland).
# HER2 signaling was assessed in BT474 and N87 cell lines which endogenously overexpress the HER2 wildtype (WT) protein, in NCI-H1781 cells which endogenously expresses a HER2 mutant protein containing a VC insertion in the kinase domain (HER2VC or G776delinsVC), and in engineered cell lines transduced to express the Her2 mutant protein containing the YVMA insertion (Hek293-HER2YVMA and BEAS2B-HER2YVMA).
# BT474, N87, and NCI-H1781 were plated in 96-well tissue-culture treated plates (Corning Costar, Sigma-Aldrich) in full media and incubated overnight. Hek293-HER2YVMA and BEAS2B-HER2YVMA cells were plated in 96-well poly-D-lysine treated plates (BD Bioscience, San Jose, CA). For treatment with test compounds, the media was replaced with corresponding low serum media (1% FBS) containing test compound at 1.1, 0.37, 0.12, 0.041, 0.014, 0.005, 0.0014, 0.0005 μM or DMSO control (0.1%). Cells were incubated with compound for 1.5 hr at 37° C. After compound treatment, the media was removed and cells were lysed for 30 min on ice in complete MSD lysis buffer (prepared using MSD base lysis buffer (Meso-Scale Discovery) supplemented with cOmplete, EDTA-free Protease inhibitor cocktail (Roche), Phosphatase Inhibitor Cocktails 2 and 3 (Sigma-Aldrich), and 1 mM PMSF (Sigma-Aldrich)). Lysates were stored at −70° C. until further analysis.
# HER2 signaling was evaluated using phospho (Tyr1248)/total ErbB2 whole cell lysate MSD plates (Meso-Scale Discovery, Gaithersburg, MD). The phospho HER2 signal was normalized to total HER2 for each sample; results are reported as % DMSO control. The normalized data was fitted using a sigmoidal curve analysis program (Graph Pad Prism version 6) with variable Hill slope to determine EC50 values.
# The HER2 signaling results are provided in Table 4, under columns titled “BT474-pHER2 EC50”, “N87-pHER2 EC50”, and “NCI-H1781-pHER2 EC50”. […]
# Chain of HER2YVMA (P04626 with tags, fused parts or gaps INS775YVMA): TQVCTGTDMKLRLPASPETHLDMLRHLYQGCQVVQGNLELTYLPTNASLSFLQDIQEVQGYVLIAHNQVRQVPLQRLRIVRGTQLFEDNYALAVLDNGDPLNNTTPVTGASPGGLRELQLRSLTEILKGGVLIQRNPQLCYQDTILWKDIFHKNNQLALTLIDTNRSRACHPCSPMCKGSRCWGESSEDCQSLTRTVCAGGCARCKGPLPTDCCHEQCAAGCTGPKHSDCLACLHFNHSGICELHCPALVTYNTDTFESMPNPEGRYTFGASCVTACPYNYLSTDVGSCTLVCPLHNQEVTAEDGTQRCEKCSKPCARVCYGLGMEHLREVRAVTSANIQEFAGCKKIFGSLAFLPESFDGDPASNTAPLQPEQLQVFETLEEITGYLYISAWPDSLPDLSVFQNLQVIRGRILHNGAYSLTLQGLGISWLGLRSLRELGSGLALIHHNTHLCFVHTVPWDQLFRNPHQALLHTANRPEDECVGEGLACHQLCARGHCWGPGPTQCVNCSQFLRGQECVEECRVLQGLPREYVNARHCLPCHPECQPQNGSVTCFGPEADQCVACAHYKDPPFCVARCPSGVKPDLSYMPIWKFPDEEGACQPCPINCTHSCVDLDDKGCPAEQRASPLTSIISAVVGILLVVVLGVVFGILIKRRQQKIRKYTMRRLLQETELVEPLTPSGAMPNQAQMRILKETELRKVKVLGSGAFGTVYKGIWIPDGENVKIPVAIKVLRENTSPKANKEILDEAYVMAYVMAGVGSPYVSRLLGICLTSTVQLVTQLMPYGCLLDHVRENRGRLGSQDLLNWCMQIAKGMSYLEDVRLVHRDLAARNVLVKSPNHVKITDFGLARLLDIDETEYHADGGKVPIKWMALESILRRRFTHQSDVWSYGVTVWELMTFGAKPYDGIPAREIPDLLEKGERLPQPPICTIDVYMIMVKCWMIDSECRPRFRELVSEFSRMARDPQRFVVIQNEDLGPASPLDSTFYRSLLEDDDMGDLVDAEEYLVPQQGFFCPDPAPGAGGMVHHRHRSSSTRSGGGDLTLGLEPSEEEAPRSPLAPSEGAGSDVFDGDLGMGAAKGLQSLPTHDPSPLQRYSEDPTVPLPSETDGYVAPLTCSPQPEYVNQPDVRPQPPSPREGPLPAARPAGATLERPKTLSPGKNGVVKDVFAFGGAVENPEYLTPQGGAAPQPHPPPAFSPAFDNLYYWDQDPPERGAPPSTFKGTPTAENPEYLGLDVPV
row,Compound,EC50
1,"Cc1ccc(Oc2ccc(Nc3ncnc4sc5c(c34)C[C@@H](C)N(C(=O)/C=C/CN(C)C)[C@H]5C)cc2C)cn1 (racemic) [Compound 149, (E)-1-(6,8-cis-dimethyl-4-((3-methyl-4-((6-methylpyridin-3-yl)oxy)phenyl)amino)-5,8-dihydropyrido[4′,3′:4,5]thieno[2,3-d]pyrimidin-7(6H)-yl)-4-(dimethylamino)but-2-en-1-one]",< 100 nM
2,"Cc1ccc(Oc2ccc(Nc3ncnc4sc5c(c34)C[C@@H](C)N(C(=O)/C=C/CN(C)C)[C@@H]5C)cc2C)cn1 (racemic) [Compound 165, (E)-1-(6,8-trans-dimethyl-4-((3-methyl-4-((6-methylpyridin-3-yl)oxy)phenyl)amino)-5,8-dihydropyrido[4′,3′:4,5]thieno[2,3-d]pyrimidin-7(6H)-yl)-4-(dimethylamino)but-2-en-1-one]",100 to 350 nM
3,"C=CC(=O)N1[C@H](C)Cc2c(sc3ncnc(Nc4ccc(Oc5ccc(C)nc5)c(C)c4)c23)[C@H]1C (racemic) [Compound 166, 1-(6,8-trans-dimethyl-4-((3-methyl-4-((6-methylpyridin-3-yl)oxy)phenyl)amino)-5,8-dihydropyrido[4′,3′:4,5]thieno[2,3-d]pyrimidin-7(6H)-yl)prop-2-en-1-one]",< 100 nM
4,"C=CC(=O)N1Cc2sc3ncnc(Nc4ccc(Oc5ccc(C)nc5)c(C)c4)c3c2C(C)C1 (single isomer, unassigned) [Compound 145]",< 100 nM
5,"C=CC(=O)N1Cc2sc3ncnc(Nc4ccc(Oc5ccc(C)nc5)c(C)c4)c3c2C(C)C1 (single isomer, unassigned) [Compound 146]",< 100 nM
6,"Cc1ccc(Oc2ccc(Nc3ncnc4sc5c(c34)C(C)N(C(=O)C=CCN(C)C)C5)cc2C)cn1 (single isomer, unassigned) [Compound 147]",< 100 nM
7,"Cc1ccc(Oc2ccc(Nc3ncnc4sc5c(c34)C(C)N(C(=O)C=CCN(C)C)C5)cc2C)cn1 (single isomer, unassigned) [Compound 148]",350 to 1000 nM
8,"COc1ccc(Oc2ccc(Nc3ncnc4sc5c(c34)C(C)CN(C(=O)C=CCN(C)C)C5)cc2C)cn1 (single isomer, unassigned) [Compound 159]",< 100 nM
9,"COc1ccc(Oc2ccc(Nc3ncnc4sc5c(c34)C(C)CN(C(=O)C=CCN(C)C)C5)cc2C)cn1 (single isomer, unassigned) [Compound 160]",< 100 nM
10,"Cc1ccc(Oc2ccc(Nc3ncnc4sc5c(c34)CC(C)N(C(=O)C=CCN(C)C)C5C)cc2C)cn1 (single isomer, unassigned) [Compound 161]",< 100 nM
11,"Cc1ccc(Oc2ccc(Nc3ncnc4sc5c(c34)CC(C)N(C(=O)C=CCN(C)C)C5C)cc2C)cn1 (single isomer, unassigned) [Compound 162]",100 to 350 nM
12,"Cc1ccc(Oc2ccc(Nc3ncnc4sc5c(c34)CN(C(=O)C=CCN(C)C)C5C)cc2C)cn1 (single isomer, unassigned) [Compound 169]",< 100 nM
13,"Cc1ccc(Oc2ccc(Nc3ncnc4sc5c(c34)CN(C(=O)C=CCN(C)C)C5C)cc2C)cn1 (single isomer, unassigned) [Compound 170]",350 to 1000 nM
14,"Cc1ccc(Oc2ccc(Nc3ncnc4sc5c(c34)C(C)CN(C(=O)C=CCN3CCOCC3)C5)cc2C)cn1 (single isomer, unassigned) [Compound 176]",< 100 nM
15,"Cc1ccc(Oc2ccc(Nc3ncnc4sc5c(c34)C(C)CN(C(=O)C=CCN3CCOCC3)C5)cc2C)cn1 (single isomer, unassigned) [Compound 177]",< 100 nM
16,"Cc1ccc(Oc2ccc(Nc3ncnc4sc5c(c34)C(C)CN(C(=O)C=CCN(C)C(C)(C)C)C5)cc2C)cn1 (single isomer, unassigned) [Compound 178]",< 100 nM
17,"Cc1ccc(Oc2ccc(Nc3ncnc4sc5c(c34)C(C)CN(C(=O)C=CCN(C)C(C)(C)C)C5)cc2C)cn1 (single isomer, unassigned) [Compound 179]",< 100 nM
18,"C=CC(=O)N1CCc2c(sc3ncnc(Nc4ccc(Oc5cccnc5)c(Cl)c4)c23)C1 [Compound 6, 1-(4-((3-chloro-4-(pyridin-3-yloxy)phenyl)amino)-5,8-dihydropyrido[4′,3′:4,5]thieno[2,3-d]pyrimidin-7(6H)-yl)prop-2-en-1-one]",< 100 nM
19,"COc1cc(Nc2ncnc3sc4c(c23)CCN(C(=O)/C=C/CN(C)C)C4)ccc1Oc1ccccc1 [Compound 7, (E)-4-(dimethylamino)-1-(4-((3-methoxy-4-phenoxyphenyl)amino)-5,8-dihydropyrido[4′,3′:4,5]thieno[2,3-d]pyrimidin-7(6H)-yl)but-2-en-1-one]",< 100 nM
20,"Cc1ccc(Oc2ccc(Nc3ncnc4sc5c(c34)CCN(C(=O)/C=C/CN(C)C)C5)cc2C)cn1 [Compound 8, (E)-4-(Dimethylamino)-1-(4-((3-methyl-4-((6-methylpyridin-3-yl)oxy)phenyl)amino)-5,6-dihydropyrido[4′,3′:4,5]thieno[2,3-d]pyrimidin-7(8H)-yl)but-2-en-1-one]",< 100 nM
21,"C=CC(=O)N1CCc2c(sc3ncnc(Nc4ccc(Oc5cccnc5)c(C)c4)c23)C1 [Compound 11, 1-(4-((3-methyl-4-(pyridin-3-yloxy)phenyl)amino)-5,8-dihydropyrido[4′,3′:4,5]thieno[2,3-d]pyrimidin-7(6H)-yl)prop-2-en-1-one]",< 100 nM
22,Cc1cc(Nc2ncnc3sc4c(c23)CCN(C(=O)/C=C/CN2CCOCC2)C4)ccc1Oc1ccc2ncnn2c1 [Compound 12],< 100 nM
23,Cc1ccc(Oc2ccc(Nc3ncnc4sc5c(c34)CCN(C(=O)/C=C/CN3CC4CCC(C3)O4)C5)cc2C)cn1 [Compound 13],< 100 nM
24,Cc1ccc(Oc2ccc(Nc3ncnc4sc5c(c34)CCN(C(=O)/C=C/CN3CC4CCC3C4)C5)cc2C)cn1 (stereo not shown) [Compound 14],< 100 nM
25,Cc1ccc(Oc2ccc(Nc3ncnc4sc5c(c34)CCN(C(=O)/C=C/CN3CC4CC(C3)O4)C5)cc2C)cn1 [Compound 15],< 100 nM
26,"Cc1ccc(Oc2ccc(Nc3ncnc4sc5c(c34)CCN(C(=O)/C=C/CN3CC4CCC(C4)C3)C5)cc2C)cn1 [Compound 16, (E)-4-(3-azabicyclo[3.2.1]octan-3-yl)-1-(4-((3-methyl-4-((6-methylpyridin-3-yl)oxy)phenyl)amino)-5,8-dihydropyrido[4′,3′:4,5]thieno[2,3-d]pyrimidin-7(6H)-yl)but-2-en-1-one benzenesulfonate salt]",< 100 nM
27,"Cc1ccc(Oc2ccc(Nc3ncnc4sc5c(c34)CCN(C(=O)/C=C/CN3CCOCC3)C5)cc2C)cn1 [Compound 17, (E)-1-(4-((3-Methyl-4-((6-methylpyridin-3-yl)oxy)phenyl)amino)-5,6-dihydropyrido[4′,3′:4,5]thieno[2,3-d]pyrimidin-7(8H)-yl)-4-morpholinobut-2-en-1-one]",< 100 nM
28,O=C(/C=C/CN1CCOCC1)N1CCc2c(sc3ncnc(Nc4ccc(Oc5ccc6ncnn6c5)c(Cl)c4)c23)C1 [Compound 18],< 100 nM
